{"source": "patent US20160032327A1", "about": "“PROCESS FOR CULTURING DEINOCOCCUS BACTERIA” (DEINOVE, priority 2012, published 2016)", "key": {"[1]": {"tested_on": "Deinococcus radiodurans R1", "text": "(§1) And the “Inhibitory Concentration of an oxidizer towards a Deinococcus or a related bacterium” (“ICD”) refers to the minimum concentration of said oxidizer in the culture medium that inhibits or reduces the growth of the Deinococcus. The IC may be easily ascertained for each microorganism or each strain thereof, and for each oxidizer, by implementing test cultures. For example, the strain of interest may be cultivated in several parallel cultures, each of said cultures containing an increased concentration of the oxidizer. After 2 or 3 days, the cultures are observed to measure the microbial growth and thereby to determine the IC.\n(§2) Preculture was done for 3 days in CMG 1%. After checking the purity of the culture, cell pellet was washed three times in sterile water and then DO was adjusted to 2.\n(§3) Hydrogen peroxide stock solution: H2O2 (30%wt solution, SIGMA ref. 216763, stored at 4° C.)\n(§4) Preparation of the H2O2 range:\n(§5) Dispense 180 μl of media into culture wells (200 μl into blank wells)\n(§6) Add 20 μL of washed cell pellet at an optical density (600 nm) of 2 into well to be inoculated.\n(§7) Gently add 50 μL of mineral oil on the well surface to limit evaporation.\n(§8) Microplate was incubated for 3 days at 30 or 45° C. according to the optimal growth temperature indicated in the first part. Growth was monitored by an absorbance measure."}, "Escherichia coli K12": {"tested_on": "Escherichia coli K12", "conditions": "E. coli, 30° C., CMG medium", "text": "as §1, §2, §3, §4, §5, §6, §7, §8"}, "M36-7D_17": {"tested_on": "M36-7D_17", "text": "as §1, §2, §3, §4, §5, §6, §7, §8"}, "M36-7D_21 [2]": {"tested_on": "M36-7D_21", "text": "as §1, §2, §3, §4, §5, §6, §7, §8"}, "M36-7Dwt": {"tested_on": "M36-7Dwt", "text": "as §1, §2, §3, §4, §5, §6, §7, §8"}, "[3]": {"tested_on": "Saccharomyces cerevisiae 2640", "conditions": "S. cerevisiae, 30° C., CMG medium", "text": "as §1, §2, §3, §4, §5, §6, §7, §8"}, "Zymomonas mobilis DSM424": {"tested_on": "Zymomonas mobilis DSM424", "conditions": "Z. mobilis, 30° C., CMG medium", "text": "as §1, §2, §3, §4, §5, §6, §7, §8"}, "M36-7D_21 [4]": {"tested_on": "M36-7D_21", "conditions": "no growth after 24 or 96 h on agar plates at 45° C.", "procedure": "(§9) Deinococcus geothermalis M36-7D—21 and MX61E—04 were cultivated in 20% starch effluent pH 5 containing 15 mM NH4Cl and 5.30 mM K2HPO4\n(§10) 5 ml of the cultures were treated during one hour with different concentration of H2O2 (20, 50,100, 150 and 200 mM) at room temperature or at 45° C.\n(§11) The control sample corresponds to untreated sample (0 mM H2O2).\n(§12) The control and treated samples were then spread on agar plates containing 10% effluent starch and incubated during 24 and 96 hours at 45° C.\n(§13) The inhibitory concentration (IC expressed in mM) is the hydrogen peroxide concentration from which there was no growth after 24 or 96 h."}, "MX6-1E_04": {"tested_on": "MX6-1E_04", "conditions": "no growth after 24 or 96 h on agar plates at 45° C.", "procedure": "as §9, §10, §11, §12, §13"}, "[5]": {"tested_on": "Deinococcus geothermalis M36-7D—21", "procedure": "The growth of Deinococcus geothermalis M36-7D—21 was performed in microplates in CMG medium containing Peptone 2 g/L; Yeast Extract 5 g/L; Glucose 55 mM (10 g/L); MOPS acid 40 mM; NH4Cl 20 mM; NaOH 10 mM; KOH 10 mM; CaCl2.2H2O 0.5 μM; Na2SO4.10H2O 0.276 mM; MgCl2.6H2O 0.528 mM; (NH4)6(Mo7)O24.4H2O 3 nM; H3BO3 0.4 μM; CoCl2.6H2O 30 nM; CuSO4.5H2O 10 nM; MnCl2 0.25 μM; ZnSO4.7H2O 10 nM; D-Biotin 1 μg/L; Niacin (nicotinic acid) 1 μg/L; Pyridoxin (pyridoxal HCl ou vitamine B6) 1 μg/L; Thiamin HCl (vitamine B1); FeCl3 20 μM; Sodium Citrate.2H2O 20 μM; K2HPO4 5,7 mM.\nThe addition of 100 mM hydrogen peroxide was made at TO (begin of the growth) or at the exponential phase.\nThe growth was monitored by measuring the OD600 nm."}, "[6]": {"conditions": "one hour treatment at room temperature"}}, "note": "Where two headings read alike, the source gives them in different places."}
{"smiles": "OO", "note": "[hydrogen peroxide]", "values": [{"measurement": "Concentration of hydrogen peroxide in the presence of which the strain is able to grow", "setting": "[1]; D. radiodurans R1", "value": "up to 190 mM"}, {"measurement": "IC: concentration of hydrogen peroxide from which there was no growth after 3 days of incubation", "setting": "[1]; D. radiodurans R1, 30° C., CMG medium, 3 days", "value": 200, "unit": "mM"}, {"measurement": "IC: concentration of hydrogen peroxide from which there was no growth after 3 days of incubation", "setting": "Escherichia coli K12", "value": 10, "unit": "mM"}, {"measurement": "IC: concentration of hydrogen peroxide from which there was no growth after 3 days of incubation", "setting": "M36-7D_17; M36-7D_17, CMG medium, 3 days", "value": 200, "unit": "mM"}, {"measurement": "Concentration of hydrogen peroxide in the presence of which the strain is able to grow", "setting": "M36-7D_17; modified D. geothermalis M36-7D (M36-7D_17)", "value": "up to 190 mM"}, {"measurement": "IC: concentration of hydrogen peroxide from which there was no growth after 3 days of incubation", "setting": "M36-7D_21 [2]; M36-7D_21, CMG medium, 3 days", "value": 200, "unit": "mM"}, {"measurement": "Concentration of hydrogen peroxide in the presence of which the strain is able to grow", "setting": "M36-7D_21 [2]; modified D. geothermalis M36-7D (M36-7D_21)", "value": "up to 190 mM"}, {"measurement": "Concentration of hydrogen peroxide in the presence of which the strain is able to grow", "setting": "M36-7Dwt; D. geothermalis M36-7Dwt", "value": "up to 190 mM"}, {"measurement": "IC: concentration of hydrogen peroxide from which there was no growth after 3 days of incubation", "setting": "M36-7Dwt; M36-7Dwt, 45° C., CMG medium, 3 days", "value": 200, "unit": "mM"}, {"measurement": "IC: concentration of hydrogen peroxide from which there was no growth after 3 days of incubation", "setting": "[3]", "value": 20, "unit": "mM"}, {"measurement": "IC: concentration of hydrogen peroxide from which there was no growth after 3 days of incubation", "setting": "Zymomonas mobilis DSM424", "value": 10, "unit": "mM"}, {"measurement": "Inhibitory concentration (mM) of hydrogen peroxide", "setting": "M36-7D_21 [4]; one hour treatment at 45° C.", "value": 200, "unit": "mM"}, {"measurement": "Inhibitory concentration (mM) of hydrogen peroxide", "setting": "M36-7D_21 [4]; [6]", "value": ">200", "unit": "mM"}, {"measurement": "Inhibitory concentration (mM) of hydrogen peroxide", "setting": "MX6-1E_04; one hour treatment at 45° C.", "value": 50, "unit": "mM"}, {"measurement": "Inhibitory concentration (mM) of hydrogen peroxide", "setting": "MX6-1E_04; [6]", "value": 100, "unit": "mM"}, {"measurement": "Effect on growth of M36-7D—21 (OD600 nm)", "setting": "[5]; 100 mM hydrogen peroxide added at TO (begin of the growth)", "value": "did not affect the growth"}, {"measurement": "Effect on growth of M36-7D—21 (OD600 nm)", "setting": "[5]; 100 mM hydrogen peroxide added at the exponential phase", "value": "did not affect the growth"}, {"measurement": "IC: concentration of hydrogen peroxide from which there was no growth after 3 days of incubation", "setting": "M36-7D_18; M36-7D_18, CMG medium, 3 days", "value": 200, "unit": "mM"}, {"measurement": "Concentration of hydrogen peroxide in the presence of which the strain is able to grow", "setting": "M36-7D_18; modified D. geothermalis M36-7D (M36-7D_18)", "value": "up to 190 mM"}]}
